Measured values reported in patent publication US20050065140A1, “Serotonine reuptake inhibitor” (priority 2001, published 2005).

Each molecule was assayed against T1, human 5-HT1A receptor (Homo sapiens, UniProt P08908) (assay: 5-HT1A receptor stimulation test, [^35S]GTPγS binding (Test Example 3)). Conditions: 10^-5 M test substance; membranes of human 5-HT1A/CHO cells; increase in [^35S]GTPγS binding caused by 10 μM 5-HT taken as 100%.
T1 construct: expressed in transfected cells; host or cells: CHO cells (human 5-HT1A/CHO), membrane preparation
T1 sequence (P08908 1-422): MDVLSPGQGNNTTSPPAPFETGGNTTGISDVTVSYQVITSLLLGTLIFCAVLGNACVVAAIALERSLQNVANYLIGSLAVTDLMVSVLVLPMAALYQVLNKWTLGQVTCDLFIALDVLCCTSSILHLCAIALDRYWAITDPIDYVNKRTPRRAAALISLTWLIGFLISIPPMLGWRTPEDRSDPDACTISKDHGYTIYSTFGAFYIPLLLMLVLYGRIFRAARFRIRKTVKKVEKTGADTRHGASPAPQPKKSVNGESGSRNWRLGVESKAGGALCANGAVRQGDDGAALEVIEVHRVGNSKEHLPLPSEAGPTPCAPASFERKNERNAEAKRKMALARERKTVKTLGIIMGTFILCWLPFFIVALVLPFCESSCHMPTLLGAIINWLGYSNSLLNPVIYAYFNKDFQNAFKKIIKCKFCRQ
Type: biochemical
Method: 5-HT1A Receptor Stimulation Test
CHO cells expressing human 5-HT1A receptor (human 5-HT1A/CHO) were used in the experiment. The cells were cultured in F12 containing 10% FCS, 500 μg/ml Geneticin and 100 U/ml penicillin-100 μg/ml streptomycin (all available from GIBCO) in a 5% CO2 incubator, and a membrane preparation was prepared according to the method^3)of A. Newman et al. In detail, cells scraped and collected by the use of buffer solution A (20 mM HEPES, 5 mM MgSO4) were homogenized in a Teflon™ homogenizer, followed by centrifugation (50,000×g, 30 min, 4° C.). The precipitate was re-suspended in a suitable volume of buffer solution A and stored at −80° C. until use. The amount of protein in the membrane preparation was determined with Dye Reagent Concentrate (BIO-RAD) by using Albumin Bovine (SIGMA) as a standard substance.
Binding of [^35S]GTPγS to human 5-HT1A receptors was measured by the use of the above-mentioned membrane preparation according to the method^3)of A. Newman et al. In detail, 0.05 nM of [^35S]GTPγS (E.I. du Pont de Nemours & Co. NEN) and a definite amount (about 50 μg/tube) of the membrane preparation were added to buffer solution B (20 mM HEPES, 3 mM MgSO4, 3 μM GDP, 1 mM DTT) containing 10^−5 M of each test substance, and the resulting liquid for reaction having a total volume of 1 ml was incubated at 22° C. for 20 minutes. After completion of the reaction, the reaction mixture was diluted with 5 ml of ice-cooled buffer solution B, and the dilution was immediately filtered by suction through glass fiber filter (Whatman, GF/B) to terminate the reaction. The glass fiber filter was washed twice with the same buffer solution as above and placed in a vial, and 4 ml of ACS-II was added thereto. The radioactivity of [^35S]GTPγS on the filter was measured with a liquid scintillation counter. The amount of [^35S]GTPγS specifically bound was calculated from the amount of [^35S]GTPγS non-specifically bound in the presence of 10 μM of GTPγS (Sigma). The 5-HT1A receptor stimulating activity of each test substance was expressed in terms of the rate of increase in [^35S]GTPγS binding by taking an increase in [^35S]GTPγS binding caused by 10 μM of 5-HT, as 100%.
In the case of `COc1ccc(Br)c(CC2CCN(CCC3CCN(CCO)CC3)CC2)c1.Cl.Cl` [Example 6, 2-(4-(2-(4-(2-Bromo-5-methoxybenzyl)-1-piperidinyl)ethyl)-1-piperidinyl)ethanol Dihydrochloride], the “5-HT1A receptor stimulating activity (%)” value is reported as 53%.
For `CCN[C@H]1CC[C@H](CCN2CCC(Cc3cc(OC)ccc3Br)CC2)CC1.Cl.Cl` [Example 38, trans-N-(4-(2-(4-(2-bromo-5-methoxybenzyl)-piperidin-1-yl)ethyl)cyclohexyl)-N-ethylamine Dihydrochloride], the “5-HT1A receptor stimulating activity (%)” value was 48%.
In the case of `CO[C@H]1CC[C@H](CCN2CCC(Cc3cc(OC(C)C)ccc3Br)CC2)CC1.Cl` [Example 44, trans-4-(2-Bromo-5-isopropoxybenzyl)-1-(2-(4-methoxycyclohexyl)ethyl)piperidine Hydrochloride], the “5-HT1A receptor stimulating activity (%)” value is reported as 51%.
For `CCN([C@H]1CC[C@H](CCCN2CCC(Cc3cc(OC(C)C)ccc3Br)CC2)CC1)S(C)(=O)=O.Cl` [Example 46, trans-N-(4-(3-(4-(2-bromo-5-isopropoxy-benzyl)piperidin-1-yl)propyl)cyclohexyl)-N-ethylmethanesulfonamide Hydrochloride], the “5-HT1A receptor stimulating activity (%)” value was 62%.
For `COc1ccc(Br)c(CC2CCN(CC[C@H]3CC[C@H](NS(=O)(=O)N(C)C)CC3)CC2)c1.Cl` [Example 47, trans-N′-(4-(2-(4-(2-bromo-5-methoxybenzyl)-piperidin-1-yl)ethyl)cyclohexyl)-N,N-dimethylsulfamide hydrochloride], the “5-HT1A receptor stimulating activity (%)” value was 37%.
`COc1ccc(Br)c(CC2CCN(CC[C@H]3CC[C@H](NC(=O)C(F)(F)F)CC3)CC2)c1.Cl` [Example 48, trans-N-(4-(2-(4-(2-bromo-5-methoxybenzyl)-piperidin-1-yl)ethyl)cyclohexyl)-2,2,2-trifluoro-acetamide Hydrochloride] was tested, and the “5-HT1A receptor stimulating activity (%)” value was 33%.
With `CCN(CC)[C@H]1CC[C@@H](CCCN2CCC(Cc3cc(OC)ccc3Br)CC2)CC1.Cl.Cl` [Example 54, cis-N-(4-(3-(4-(2-bromo-5-methoxybenzyl)-piperidin-1-yl)propyl)cyclohexyl)-N,N-diethylamine Dihydrochloride] the “5-HT1A receptor stimulating activity (%)” value was 16%.
With `CCN(CCOC)[C@H]1CC[C@H](CCN2CCC(Cc3cc(OC)ccc3Br)CC2)CC1.Cl.Cl` [Example 58, trans-N-(4-(2-(4-(2-bromo-5-methoxybenzyl)-piperidin-1-yl)ethyl)cyclohexyl)-N-ethyl-N-(2-methoxyethyl)amine Dihydrochloride] the “5-HT1A receptor stimulating activity (%)” value was 30%.
`COc1ccc(Br)c(CC2CCN(CC[C@H]3CC[C@@H](CCO)CC3)CC2)c1.Cl` [Example 64, cis-2-(4-(2-(4-(2-Bromo-5-methoxybenzyl)-piperidin-1-yl)ethyl)cyclohexyl)ethanol Hydrochloride] was tested, and the “5-HT1A receptor stimulating activity (%)” value was 19%.
With `CC(C)Oc1ccc(Br)c(CC2CCN(CC3CCc4ccccc4N3)CC2)c1.Cl.Cl` (stereo not shown) [Example 65, 2-((4-(2-Bromo-5-isopropoxybenzyl)piperidin-1-yl)methyl)-1,2,3,4-tetrahydroquinoline Dihydrochloride] the “5-HT1A receptor stimulating activity (%)” value was 64%.
In the case of `Cl.Cl.Clc1ccc(Br)c(CC2CCN(CC3CCc4ccccc4N3)CC2)c1` (stereo not shown) [Example 67, 2-((4-(2-Bromo-5-chlorobenzyl)piperidin-1-yl)methyl)-1,2,3,4-tetrahydroquinoline Dihydrochloride], the “5-HT1A receptor stimulating activity (%)” value is reported as 74%.
In the case of `COc1ccc(Br)c(CC2CCN(CC3CCc4ccccc4N3)CC2)c1.Cl.Cl` (stereo not shown) [Example 69, 2-((4-(2-Bromo-5-methoxybenzyl)piperidin-1-yl)methyl)-1,2,3,4-tetrahydroquinoline Dihydrochloride], the “5-HT1A receptor stimulating activity (%)” value is reported as 63%.
`COc1ccc(Br)c(CC2CCN(CC3CNc4ccccc4C3)CC2)c1.Cl.Cl` (stereo not shown) [Example 70, 3-((4-(2-Bromo-5-methoxybenzyl)piperidin-1-yl)methyl)-1,2,3,4-tetrahydroquinoline Dihydrochloride] was tested, and the “5-HT1A receptor stimulating activity (%)” value was 7%.
